Test results reported in ChEMBL document CHEMBL1773037, “Evaluation of superior BACE1 cleavage sequences containing unnatural amino acids” (Bioorg Med Chem, 2011).
Starred links: 1 amine or outer side, 2 acyl side, 3 side chain; linkers in the order of their positions; H or OH if unused. Non-standard residues stand in square brackets, D forms with d. Residues, ends and D or L forms follow the SMILES beside them. X1 = O=C(O)[C@@H]1Cc2ccccc2CN1[C@H](N[*:1])C(=O)[*:2]; 2Thi = N[C@@H](Cc1cccs1)C(=O)O; Cha = N[C@@H](CC1CCCCC1)C(=O)O; Cit = NC(=O)NCCC[C@H](N)C(=O)O; Phg = N[C@H](C(=O)O)c1ccccc1; Tle = CC(C)(C)[C@H](N)C(=O)O; Abu = CC[C@H](N)C(=O)O

These molecules were tested against Beta-secretase 1 (Homo sapiens) (UniProt P56817) (assay: Activity of recombinant BACE assessed as retention time of substrate by HPLC method).
Sequence of Beta-secretase 1 (Homo sapiens) (P56817 whole entry): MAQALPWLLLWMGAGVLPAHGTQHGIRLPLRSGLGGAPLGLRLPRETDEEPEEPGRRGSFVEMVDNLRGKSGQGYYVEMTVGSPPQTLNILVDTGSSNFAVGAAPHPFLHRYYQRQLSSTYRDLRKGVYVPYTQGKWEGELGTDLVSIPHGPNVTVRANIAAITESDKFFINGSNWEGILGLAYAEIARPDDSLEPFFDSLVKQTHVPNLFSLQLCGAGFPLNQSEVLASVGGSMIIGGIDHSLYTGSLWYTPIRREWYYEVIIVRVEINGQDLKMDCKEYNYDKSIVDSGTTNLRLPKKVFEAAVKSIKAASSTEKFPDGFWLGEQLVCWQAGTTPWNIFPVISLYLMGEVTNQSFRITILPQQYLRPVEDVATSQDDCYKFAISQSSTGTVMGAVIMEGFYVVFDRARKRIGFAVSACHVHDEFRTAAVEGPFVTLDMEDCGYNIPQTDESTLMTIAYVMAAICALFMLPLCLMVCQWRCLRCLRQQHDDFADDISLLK

retention time [h] | SMILES
0.474 | CC[C@H](C)[C@H](N)C(=O)N[C@@H](CO)C(=O)N[C@@H](CC(=O)O)C(=O)N[C@H](C(=O)N[C@@H](CC(N)=O)C(=O)N[C@@H](CC(C)C)C(=O)N[C@@H](CC(=O)O)C(=O)N[C@@H](C)C(=O)N[C@@H](CCC(=O)O)C(=O)N[C@@H](Cc1ccccc1)C(=O)N[C@@H](CCCNC(=N)N)C(=O)N[C@@H](Cc1cnc[nH]1)C(N)=O)C(C)C (H-ISDVNLDAEFRH-NH2)
0.457 | CC[C@H](C)[C@H](N)C(=O)N[C@@H](CO)C(=O)N[C@@H](CCC(=O)O)C(=O)N[C@@H](CCC(=O)O)C(=O)N[C@@H](CC(N)=O)C(=O)N[C@@H](CC(C)C)C(=O)N[C@@H](CC(=O)O)C(=O)N[C@@H](C)C(=O)N[C@@H](CCC(=O)O)C(=O)N[C@@H](Cc1ccccc1)C(=O)N[C@@H](CCCNC(=N)N)C(=O)N[C@@H](Cc1cnc[nH]1)C(N)=O (H-ISEENLDAEFRH-NH2)
0.63 | CC[C@H](C)[C@H](N)C(=O)N[C@@H](CO)C(=O)N[C@@H](CCC(=O)O)C(=O)N[C@H](C(=O)N[C@@H](Cc1cccs1)C(=O)N[C@@H](Cc1cccs1)C(=O)O)[C@@H](C)CC (H-ISEI[2Thi][2Thi]-OH)
0.565 | CC[C@H](C)[C@H](N)C(=O)N[C@@H](CO)C(=O)N[C@@H](CCC(=O)O)C(=O)N[C@H](C(=O)N[C@@H](Cc1ccccc1)C(=O)N[C@@H](CC(C)C)C(=O)N[C@@H](CC(=O)O)C(=O)N[C@@H](C)C(=O)N[C@@H](CCC(=O)O)C(=O)N[C@@H](Cc1ccccc1)C(=O)N[C@@H](CCCNC(=N)N)C(=O)N[C@@H](Cc1cnc[nH]1)C(N)=O)C(C)C (H-ISEVFLDAEFRH-NH2)
0.419 | CC[C@H](C)[C@H](N)C(=O)N[C@@H](CO)C(=O)N[C@@H](CCC(=O)O)C(=O)N[C@H](C(=O)N[C@@H](CCCCN)C(=O)N[C@@H](CCSC)C(=O)N[C@@H](CC(=O)O)C(=O)N[C@@H](C)C(=O)N[C@@H](CCC(=O)O)C(=O)N[C@@H](Cc1ccccc1)C(=O)N[C@@H](CCCNC(=N)N)C(=O)N[C@@H](Cc1cnc[nH]1)C(N)=O)C(C)C (H-ISEVKMDAEFRH-NH2)
0.52 | CC[C@H](C)[C@H](N)C(=O)N[C@@H](CO)C(=O)N[C@@H](CCC(=O)O)C(=O)N[C@H](C(=O)N[C@@H](CC(N)=O)C(=O)N[C@@H](CC(C)C)C(=O)N[C@@H](CCC(N)=O)C(=O)N[C@@H](C)C(=O)N[C@@H](CCC(=O)O)C(=O)N[C@@H](Cc1ccccc1)C(=O)N[C@@H](CCCNC(=N)N)C(=O)N[C@@H](Cc1cnc[nH]1)C(N)=O)C(C)C (H-ISEVNLQAEFRH-NH2)
0.656 | CC[C@H](C)[C@H](N)C(=O)N[C@@H](CO)C(=O)N[C@@H](CCC(=O)O)C(=O)N[C@H](C(=O)N[C@@H](CC(N)=O)C(=O)N[C@@H](CC(C)C)C(=O)N[C@@H](Cc1cccs1)C(=O)N[C@@H](C)C(=O)N[C@@H](CCC(=O)O)C(=O)N[C@@H](Cc1ccccc1)C(=O)N[C@@H](CCCNC(=N)N)C(=O)N[C@@H](Cc1cnc[nH]1)C(N)=O)C(C)C (H-ISEVNL[2Thi]AEFRH-NH2)
0.727 | CC[C@H](C)[C@H](N)C(=O)N[C@@H](CO)C(=O)N[C@@H](CCC(=O)O)C(=O)N[C@H](C(=O)N[C@@H](CC(N)=O)C(=O)N[C@@H](CC(C)C)C(=O)N[C@@H](CC1CCCCC1)C(=O)N[C@@H](C)C(=O)N[C@@H](CCC(=O)O)C(=O)N[C@@H](Cc1ccccc1)C(=O)N[C@@H](CCCNC(=N)N)C(=O)N[C@@H](Cc1cnc[nH]1)C(N)=O)C(C)C (H-ISEVNL[Cha]AEFRH-NH2)
0.536 | CC[C@H](C)[C@H](N)C(=O)N[C@@H](CO)C(=O)N[C@@H](CCC(=O)O)C(=O)N[C@H](C(=O)N[C@@H](CC(N)=O)C(=O)N[C@@H](CC(C)C)C(=O)N[C@@H](CCCNC(N)=O)C(=O)N[C@@H](C)C(=O)N[C@@H](CCC(=O)O)C(=O)N[C@@H](Cc1ccccc1)C(=O)N[C@@H](CCCNC(=N)N)C(=O)N[C@@H](Cc1cnc[nH]1)C(N)=O)C(C)C (H-ISEVNL[Cit]AEFRH-NH2)
0.617 | CC[C@H](C)[C@H](N)C(=O)N[C@@H](CO)C(=O)N[C@@H](CCC(=O)O)C(=O)N[C@H](C(=O)N[C@@H](CC(N)=O)C(=O)N[C@@H](CC(C)C)C(=O)N[C@H](C(=O)N[C@@H](C)C(=O)N[C@@H](CCC(=O)O)C(=O)N[C@@H](Cc1ccccc1)C(=O)N[C@@H](CCCNC(=N)N)C(=O)N[C@@H](Cc1cnc[nH]1)C(N)=O)c1ccccc1)C(C)C (H-ISEVNL[Phg]AEFRH-NH2)
0.629 | CC[C@H](C)[C@H](N)C(=O)N[C@@H](CO)C(=O)N[C@@H](CCC(=O)O)C(=O)N[C@H](C(=O)N[C@@H](CC(N)=O)C(=O)N[C@@H](CC(C)C)C(=O)N[C@H](C(=O)N[C@@H](C)C(=O)N[C@@H](CCC(=O)O)C(=O)N[C@@H](Cc1ccccc1)C(=O)N[C@@H](CCCNC(=N)N)C(=O)N[C@@H](Cc1cnc[nH]1)C(N)=O)C(C)(C)C)C(C)C (H-ISEVNL[Tle]AEFRH-NH2)
0.648 | CC[C@H](C)[C@H](N)C(=O)N[C@@H](CO)C(=O)N[C@@H](CCC(=O)O)C(=O)N[C@H](C(=O)N[C@@H](CC(N)=O)C(=O)N[C@@H](CC(C)C)C(=O)N[C@H](C(=O)N[C@@H](C)C(=O)N[C@@H](CCC(=O)O)C(=O)N[C@@H](Cc1ccccc1)C(=O)N[C@@H](CCCNC(=N)N)C(=O)N[C@@H](Cc1cnc[nH]1)C(N)=O)N1Cc2ccccc2C[C@H]1C(=O)O)C(C)C (H-ISEVNL[X1]AEFRH-NH2)
0.42 | CC[C@H](C)[C@H](N)C(=O)N[C@@H](CO)C(=O)N[C@@H](CCC(=O)O)C(=O)N[C@H](C(=O)N[C@@H](CC(N)=O)C(=O)N[C@@H](Cc1ccc(O)cc1)C(=O)N[C@@H](CC(=O)O)C(=O)N[C@@H](C)C(=O)N[C@@H](CCC(=O)O)C(=O)N[C@@H](Cc1ccccc1)C(=O)N[C@@H](CCCNC(=N)N)C(=O)N[C@@H](Cc1cnc[nH]1)C(N)=O)C(C)C (H-ISEVNYDAEFRH-NH2)
0.502 | CC[C@H](C)[C@H](N)C(=O)N[C@@H](CO)C(=O)N[C@@H](CCC(=O)O)C(=O)N[C@H](C(=O)N[C@@H](CC(N)=O)C(=O)N[C@H](C(=O)N[C@@H](CC(=O)O)C(=O)N[C@@H](C)C(=O)N[C@@H](CCC(=O)O)C(=O)N[C@@H](Cc1ccccc1)C(=O)N[C@@H](CCCNC(=N)N)C(=O)N[C@@H](Cc1cnc[nH]1)C(N)=O)N1Cc2ccccc2C[C@H]1C(=O)O)C(C)C (H-ISEVN[X1]DAEFRH-NH2)
0.5 | CC[C@H](NC(=O)[C@@H](NC(=O)[C@H](CCC(=O)O)NC(=O)[C@H](CO)NC(=O)[C@@H](N)[C@@H](C)CC)C(C)C)C(=O)N[C@@H](CC(C)C)C(=O)N[C@@H](CC(=O)O)C(=O)N[C@@H](C)C(=O)N[C@@H](CCC(=O)O)C(=O)N[C@@H](Cc1ccccc1)C(=O)N[C@@H](CCCNC(=N)N)C(=O)N[C@@H](Cc1cnc[nH]1)C(N)=O (H-ISEV[Abu]LDAEFRH-NH2)
0.616 | CC[C@H](C)[C@H](N)C(=O)N[C@@H](CO)C(=O)N[C@@H](CCC(=O)O)C(=O)N[C@H](C(=O)N[C@@H](CC1CCCCC1)C(=O)N[C@@H](CC(C)C)C(=O)N[C@@H](CC(=O)O)C(=O)N[C@@H](C)C(=O)N[C@@H](CCC(=O)O)C(=O)N[C@@H](Cc1ccccc1)C(=O)N[C@@H](CCCNC(=N)N)C(=O)N[C@@H](Cc1cnc[nH]1)C(N)=O)C(C)C (H-ISEV[Cha]LDAEFRH-NH2)
0.482 | CC[C@H](C)[C@H](N)C(=O)N[C@@H](CO)C(=O)N[C@@H](CCC(=O)O)C(=O)N[C@H](C(=O)N[C@@H](CCCNC(N)=O)C(=O)N[C@@H](CC(C)C)C(=O)N[C@@H](CC(=O)O)C(=O)N[C@@H](C)C(=O)N[C@@H](CCC(=O)O)C(=O)N[C@@H](Cc1ccccc1)C(=O)N[C@@H](CCCNC(=N)N)C(=O)N[C@@H](Cc1cnc[nH]1)C(N)=O)C(C)C (H-ISEV[Cit]LDAEFRH-NH2)
0.541 | CC[C@H](C)[C@H](N)C(=O)N[C@@H](CO)C(=O)N[C@@H](CCC(=O)O)C(=O)N[C@H](C(=O)N[C@H](C(=O)N[C@@H](CC(C)C)C(=O)N[C@@H](CC(=O)O)C(=O)N[C@@H](C)C(=O)N[C@@H](CCC(=O)O)C(=O)N[C@@H](Cc1ccccc1)C(=O)N[C@@H](CCCNC(=N)N)C(=O)N[C@@H](Cc1cnc[nH]1)C(N)=O)c1ccccc1)C(C)C (H-ISEV[Phg]LDAEFRH-NH2)
0.531 | CC[C@H](C)[C@H](N)C(=O)N[C@@H](CO)C(=O)N[C@@H](CCC(=O)O)C(=O)N[C@H](C(=O)N[C@H](C(=O)N[C@@H](CC(C)C)C(=O)N[C@@H](CC(=O)O)C(=O)N[C@@H](C)C(=O)N[C@@H](CCC(=O)O)C(=O)N[C@@H](Cc1ccccc1)C(=O)N[C@@H](CCCNC(=N)N)C(=O)N[C@@H](Cc1cnc[nH]1)C(N)=O)C(C)(C)C)C(C)C (H-ISEV[Tle]LDAEFRH-NH2)
0.533 | CC[C@H](C)[C@H](N)C(=O)N[C@@H](CO)C(=O)N[C@@H](CCC(=O)O)C(=O)N[C@@H](Cc1cccs1)C(=O)N[C@@H](CC(N)=O)C(=O)N[C@@H](CC(C)C)C(=O)N[C@@H](CC(=O)O)C(=O)N[C@@H](C)C(=O)N[C@@H](CCC(=O)O)C(=O)N[C@@H](Cc1ccccc1)C(=O)N[C@@H](CCCNC(=N)N)C(=O)N[C@@H](Cc1cnc[nH]1)C(N)=O (H-ISE[2Thi]NLDAEFRH-NH2)
0.47 | CC[C@H](NC(=O)[C@H](CCC(=O)O)NC(=O)[C@H](CO)NC(=O)[C@@H](N)[C@@H](C)CC)C(=O)N[C@@H](CC(N)=O)C(=O)N[C@@H](CC(C)C)C(=O)N[C@@H](CC(=O)O)C(=O)N[C@@H](C)C(=O)N[C@@H](CCC(=O)O)C(=O)N[C@@H](Cc1ccccc1)C(=O)N[C@@H](CCCNC(=N)N)C(=O)N[C@@H](Cc1cnc[nH]1)C(N)=O (H-ISE[Abu]NLDAEFRH-NH2)
0.592 | CC[C@H](C)[C@H](N)C(=O)N[C@@H](CO)C(=O)N[C@@H](CCC(=O)O)C(=O)N[C@@H](CC1CCCCC1)C(=O)N[C@@H](CC(N)=O)C(=O)N[C@@H](CC(C)C)C(=O)N[C@@H](CC(=O)O)C(=O)N[C@@H](C)C(=O)N[C@@H](CCC(=O)O)C(=O)N[C@@H](Cc1ccccc1)C(=O)N[C@@H](CCCNC(=N)N)C(=O)N[C@@H](Cc1cnc[nH]1)C(N)=O (H-ISE[Cha]NLDAEFRH-NH2)
0.438 | CC[C@H](C)[C@H](N)C(=O)N[C@@H](CO)C(=O)N[C@@H](CCC(=O)O)C(=O)N[C@@H](CCCNC(N)=O)C(=O)N[C@@H](CC(N)=O)C(=O)N[C@@H](CC(C)C)C(=O)N[C@@H](CC(=O)O)C(=O)N[C@@H](C)C(=O)N[C@@H](CCC(=O)O)C(=O)N[C@@H](Cc1ccccc1)C(=O)N[C@@H](CCCNC(=N)N)C(=O)N[C@@H](Cc1cnc[nH]1)C(N)=O (H-ISE[Cit]NLDAEFRH-NH2)
